The record followed here is patent US20250346634A1, “CYCLIC PEPTIDES FOR TARGETING EPIDERMAL GROWTH FACTOR RECEPTOR AND MUTATIONS THEREOF FOR DRUG DELIVERY” (priority 2022, published 2025).

Data set [1] has as its system H1299, DKMG and K562 cells. The experiment in a line: Flow cytometry binding of peptide-FITC conjugates. It is filed as cell-based. The following applies: 2.5 μM FITC-labeled peptide.
Method: Cells with 80-90% confluence were incubated with 2.5 μM FITC-conjugated peptides in RPMI-5% FBS for 1 h at 37° C. Cells were scrapped from the culture flask and washed twice with 2 ml FCSB.
This concentration was chosen based on preliminary dose dependence study.
Data set [2] has as its system EGFR+ve cells (H1299, DKMG) versus K562 cells. In words: Flow cytometry internalization of peptide-FITC conjugates. It is filed as cell-based. The following applies: 2.5 μM FITC-labeled peptide. An excerpt:
Analysis was done with FACS cell analyzer.
For orientation: In flow cytometry, cells or beads pass a laser one at a time.

The subject of data set [3] is H1299 tumor (EGFR positive) versus K562 tumor (EGFR negative). In words: In vivo targeting in mice with dual H1299 and K562 xenografts. The following applies: nude mice, tail vein, 100 μg.
Method: Animal protocols were approved by the Institutional Animal Care and Use Committee at Ariel university Israel. Nude mice were injected with either H1299 cells in the right flank and with K562 cells in the left flank, so that each mouse bore either dual H1299 and K562 xenografts. When tumors reached, 100 mm^3 mice were injected via tail vein with 100 μg of FITC-labeled cyclic peptide, according to some embodiments of the present invention, and imaged using IVIS® SpectrumCT 8- and 24-hours post injection. Immediately afterwards, the mice were sacrificed for ex vivo imaging of organs.
Signal from the targeted tumor compared to other tissues was determined for each animal.
The subject of the next data set is H1299 cells. The experiment in a line: XTT cytotoxicity assay on H1299 cells. It is filed as cell-based. As for the experimental part: (§1) Cell growth in the presence of PDCs was measured by a commercial XTT assay kit (Cell Proliferation Kit, XTT based; Biological Industries, Israel). The cells (10^4 cells/well) were seeded in 96 well plates and incubated overnight in complete growth medium. The cells were washed and then cultured in 100 μl of new medium containing various concentrations of drug or peptides, for 24 h, 48 h, and 72 h. The XTT solution was added to each well and the plate was further incubated 2-3 h at 37° C. The optical density in the wells was measured at both 480 nm and 680 nm using a TECAN Infinite M200 ELISA reader. All the tests were done in triplicates, and each experiment was repeated three times.
(§2) The cytotoxicity of the Peptide-Drug conjugates (PDCs) was tested in a range of concentrations (0.5-50 μM) against H1299 and DKMG cells using two protocols. In the first protocol, cells were pre-incubated with P6, P9, P6-CPT, and P9-CPT for 6 hours, the medium was removed, and a fresh, drug-free complete medium was added for additional 24 h (designated as 6h24h) or 48 h (6h48h). In the second protocol, cells were exposed continuously to PDCs for 24 h, 48 h, and 72 hours.
In general terms: Tetrazolium dyes change colour on reduction, which living cells bring about.

Data set [4] can be described thus: Stability of peptide-drug conjugates in complete growth medium (LC-MS). It is filed as in vitro ADME. The following applies: RPMI and DMEM complete growth medium, 37° C., read-out: half-life of degradation. On the procedure: At each time point, 10 μl of sample was taken and mixed with 25 μl ACN/H2O (1:1, v.v.). The samples were centrifuged at 1,400 rpm for 15 min. Supernatants were collected, filtered and analyzed by liquid chromatography mass spectrometry (LC-MS).
The stability of P6-CPT and P9-CPT was measured in RPMI and DMEM complete growth medium at 37° C. for 0 h, 0.5 h, 3 h, 7 h, 24 h, 48, and 72 h. The degradation of the conjugates and the CPT release was analyzed by LC-MS. The stability of these conjugates and drug release rates were similar.

A further data set concerns DKMG cells. The experiment in a line: XTT cytotoxicity assay on DKMG cells. Type of data set: cell-based. On the procedure: as §1, §2
In data set [5] the test system is H1299, H1975 and DKMG cells. The experiment in a line: Phage display biopanning with NGS, selection of EGFR-specific peptides. Type of data set: cell-based. Conditions: 3 rounds of biopanning, K562-derived sequences excluded. As for the experimental part:
A heptapeptide phage display library (Ph.D.-C7C Phage Display Library Kit, New England Biolabs, USA) was used for the in vitro biopanning experiments. All cell lines were individually incubated with phages from the stock library. […] Adherent cells (H1299, […] and DKMG) were plated at a density of 10^5 cells/ml in a 6-well plate. When the culture reached 80% confluence, the first well was incubated with phage library (10^11 pfu/10 μl) for 1 h at 37° C. with gentle stirring. The medium containing unbound phage was collected and transferred to the second, similar well and incubated again. The procedure was repeated with the third well. Cells in the third wells were washed four times with 0.5% Tween-20 in PBS. Then, 0.5 ml of elution buffer (0.2 M glycine-HCl, pH 2.2) was added and incubated for 10 min at 4° C.; the pH was neutralized by addition of 75 μl of 1 M Tris-HCl buffer, pH 9.0. The supernatant containing cell surface binding phage was collected. The cells were then lysed by incubation for 1 h at 4° C. with 2 ml of 30 mM Tris-HCl and 1 mM EDTA, pH 8.0. The medium was collected and centrifuged at 1,500 rpm for 5 min and the supernatant containing cell-internalized phage was transferred to a new tube. The internalized and surface-bound phages were amplified according to the manufacturer's instructions. An aliquot of the phages was retained for sequencing (see below) and the remainder was subjected to two additional rounds of biopanning. […]
Finally, two groups of peptides were constructed; the first included sequences that were present in all three EGFR+ve cell lines and included about 416 sequences; the second was divided into three subgroups, one for each cell line, wherein the subgroup for H1299 included some 1666 sequences, the subgroup for H1975 included some 10437 sequences, the subgroup for DKMG included some 981 sequences. From this list, top eleven S—S bridged cyclic peptides sequences were selected by their count in the sequencing data (the highest number of reads). […]

Data set [6] deals with T1, epidermal growth factor receptor (EGFR), wild type (human, UniProt P00533 25-1210).
T1 construct: whole, on cells; The target is inferred from tumour cell lines that overexpress EGFR, compared with EGFR-negative cells; No purified receptor was used; also called EGFRWT; EGFR WT
The experiment in a line: confocal microscopy, 25 uM FITC-peptide, 3 h, H1299 cells.

Data set [7] has as its target T2, EGFR variant III (EGFRvIII), on DKMG glioblastoma cells (human, UniProt P00533 25-1210).
T2 construct: whole, on cells; DKMG cells express both wild type EGFR (92% of cells) and EGFRvIII (82%); All results on DKMG cells are written against this molecule; also called EGFR mutant; EGFRVIII DKMG
In words: flow cytometry, 2.5 uM FITC-peptide on DKMG cells (EGFR WT and EGFRvIII).

The mark [8] stands for this setting: H1299, 6 w 48 h (6 h pre-incubation, then 48 h drug-free medium).
[9] abbreviates: H1299, 24 h continuous exposure.
Setting [10] is: H1299, 48 h continuous exposure.
Where [11] appears, read: H1299, first protocol (6 h pre-incubation), up to 48 h.
Setting [12] is: H1299, second protocol, continuous exposure.
[13] abbreviates: H1299, 72 h continuous exposure.

Like-named read-outs stand apart in the source and are kept apart here. Bridge positions count the residues as written; N and C are the ends. Square brackets hold non-standard residues; d marks the D form. Peptide text beside a SMILES is read from it. * marks the point of attachment. Camptothecin(20S-OCO) = CC[C@@]1(OC(=O)*)C(=O)OCc2c1cc1n(c2=O)Cc2cc3ccccc3nc2-1; FITC = O=C1OC2(c3ccc(O)cc3Oc3cc(O)ccc32)c2ccc(NC(=S)*)cc21; Abu = CC[C@H](N)C(=O)O; GABA = NCCCC(=O)O

The IC50 is the concentration that gives 50% inhibition. Low values mean higher potency, high ones lower potency. For orientation: half-life means how long it takes for the measured level to halve.

In the case of `C[C@@H]1NC(=O)[C@@H](NC(=O)CCCNC(=S)Nc2ccc3c(c2)C(=O)OC32c3ccc(O)cc3Oc3cc(O)ccc32)CSSC[C@@H](C(N)=O)NC(=O)[C@H](CCCNC(=N)N)NC(=O)CNC(=O)[C@@H]2CCCN2C(=O)[C@H]([C@@H](C)O)NC(=O)[C@H](Cc2ccc(O)cc2)NC(=O)[C@H](CCC(N)=O)NC1=O` [FITC-labeled P11] ({FITC-GABA}-CAQYTPGRC-NH2; disulfide 1-9), the “binding (flow cytometry)” value in [1] is “bind to H1299 and DKMG selectively but not to K562 cells”. Besides, the “internalization (flow cytometry)” value in [2] is “internalized only into to EGFR+ve cells”. Besides, the “accumulation in other organs” value in [3] (ex vivo imaging of organs) is “No significant accumulation”. For the same molecule, in data set [3] (imaging 8 and 24 hours post injection), the tumor accumulation entry is “accumulates in the H1299 tumor compared to the K562 tumor”.

As to `CC[C@H](C)[C@@H]1NC(=O)[C@H](Cc2ccc(O)cc2)NC(=O)[C@H](CO)NC(=O)CNC(=O)[C@@H]2CCCN2C(=O)[C@H](C(C)C)NC(=O)[C@H](Cc2cnc[nH]2)NC(=O)[C@@H](NC(=O)CCCNC(=O)O[C@]2(CC)C(=O)OCc3c2cc2n(c3=O)Cc3cc4ccccc4nc3-2)CSSC[C@@H](C(N)=O)NC1=O` [Peptide P6-CPT] ({Camptothecin(20S-OCO)-GABA}-CHVPGSYIC-NH2; disulfide 1-9), the IC50 is 32 µM in the data set with H1299 cells (setting [8]), 14.5 µM with H1299 cells (setting [9]) and 5.5 µM with H1299 cells (setting [10]). The cytotoxicity entry with H1299 cells (setting [11]) is recorded as “exhibited cytotoxic effect after 48 h”; in the data set with H1299 cells (setting [12]) it was “observed after 24 hours post exposure”. The half-life in [4] fell in the range of 6 to 7 h.

`CC[C@@H]1NC(=O)[C@@H](NC(=O)CCCNC(=O)O[C@]2(CC)C(=O)OCc3c2cc2n(c3=O)Cc3cc4ccccc4nc3-2)CSSC[C@@H](C(N)=O)NC(=O)[C@H](Cc2ccc(O)cc2)NC(=O)[C@H](CO)NC(=O)[C@H](CCC(N)=O)NC(=O)[C@H](CCSC)NC(=O)[C@H](C)NC(=O)[C@H](CC(N)=O)NC1=O` [Peptide P9-CPT] ({Camptothecin(20S-OCO)-GABA}-C[Abu]NAMQSYC-NH2; disulfide 1-9): the IC50 with H1299 cells (setting [8]) was determined as 21.5 ± 2.1 µM; with H1299 cells (setting [9]) it was 8.4 ± 0.5 µM; in the data set with H1299 cells (setting [10]) it was 2.2 ± 0.3 µM; with H1299 cells (setting [13]), 1.2 ± 0.1 µM; with DKMG cells (6 w 48 h (6 h pre-incubation, then 48 h drug-free medium)) it was 32 ± 1.6 µM; in the data set on DKMG cells (24 h continuous exposure) it was 6.76 µM. Moreover, the IC50 with DKMG cells (48 h continuous exposure) was found to be 2.7 ± 1 µM; in the data set on DKMG cells (72 h continuous exposure), 0.2 ± 0.1 µM. Besides, the results for the cytotoxicity entry in the data set with H1299 cells (setting [11]) and with H1299 cells (setting [12]) were “exhibited cytotoxic effect after 48 h” and “observed after 24 hours post exposure”, respectively. Besides, in the data set with DKMG cells (first protocol), the cytotoxic effect result is “noted after 48 hours”. The “IC50 concentration higher compared to the free CPT” value in the data set with DKMG cells (first protocol, 48 hours) is listed as 4 fold. Moreover, the half-life in data set [4] is 6 to 7 h.

For the molecule `CSCC[C@@H]1NC(=O)[C@H](C)NC(=O)[C@H](CC(N)=O)NC(=O)[C@H](C(C)C)NC(=O)[C@@H](N)CSSC[C@@H](C(N)=O)NC(=O)[C@H](Cc2ccc(O)cc2)NC(=O)[C@H](CO)NC(=O)[C@H](CCC(N)=O)NC1=O` [Peptide P9] (H-CVNAMQSYC-NH2; disulfide 1-9), the cytotoxicity entry in the data set with H1299 cells was “did not demonstrate cytotoxicity”. Moreover, the IC50 came to 22.3 ± 0.2 µM in the data set on H1299 cells (setting [9]); 27.3 ± 1.7 µM with H1299 cells (setting [10]); 22.5 µM in the data set on H1299 cells (setting [13]); 16.4 ± 1.9 µM in the data set with DKMG cells (24 h continuous exposure); 17.5 ± 2.3 µM in the data set with DKMG cells (48 h continuous exposure); 17.5 ± 1.6 µM in the data set on DKMG cells (72 h continuous exposure). For the same molecule, in [5], the “Cell line (peptide specificity per cell line; source of the cells from which the peptide was identified)” value was “DKMG”.

With `C[C@@H]1NC(=O)[C@@H](N)CSSC[C@@H](C(N)=O)NC(=O)[C@H](CCCNC(=N)N)NC(=O)CNC(=O)[C@@H]2CCCN2C(=O)[C@H]([C@@H](C)O)NC(=O)[C@H](Cc2ccc(O)cc2)NC(=O)[C@H](CCC(N)=O)NC1=O` [Peptide P11] (H-CAQYTPGRC-NH2; disulfide 1-9), the “Cell line (peptide specificity per cell line; source of the cells from which the peptide was identified)” value in data set [5] is given as “DKMG”.

B1: FITC-labeled cyclic peptide P6, c(CHVPGSYIC) (peptide)
peptide: {FITC-GABA}-CHVPGSYIC-NH2
modifications: disulfide 1-9
SMILES: CC[C@H](C)[C@@H]1NC(=O)[C@H](Cc2ccc(O)cc2)NC(=O)[C@H](CO)NC(=O)CNC(=O)[C@@H]2CCCN2C(=O)[C@H](C(C)C)NC(=O)[C@H](Cc2c[nH]cn2)NC(=O)[C@@H](NC(=O)CCCNC(=S)Nc2ccc3c(c2)C(=O)OC32c3ccc(O)cc3Oc3cc(O)ccc32)CSSC[C@@H](C(N)=O)NC1=O
notes: also called FITC-P6; P6-FITC conjugate
As for B1, the binding result in data set [6] and in data set [7] was “binds” throughout.
